The record followed here is patent US8557816B2, “Aurora kinase modulators and method of use” (Amgen Inc., priority 2007, dated 2013).

The target in experiment [1] is T1, AuroraA-TPX2 (Homo sapiens, UniProt O14965).
T1 construct: 20 μL of AuroraA-TPX2 KD GST for a final volume of about 41 μL; GST
T1 sequence (O14965 133-383 limits assumed): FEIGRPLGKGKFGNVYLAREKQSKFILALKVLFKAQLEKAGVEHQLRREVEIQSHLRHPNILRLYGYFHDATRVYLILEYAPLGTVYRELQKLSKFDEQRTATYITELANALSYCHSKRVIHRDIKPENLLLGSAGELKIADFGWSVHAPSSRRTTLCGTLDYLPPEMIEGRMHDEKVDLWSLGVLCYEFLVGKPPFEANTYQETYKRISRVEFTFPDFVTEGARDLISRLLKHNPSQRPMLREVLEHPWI
T1 sequence (Q9ULW0 1-43 partner limits assumed): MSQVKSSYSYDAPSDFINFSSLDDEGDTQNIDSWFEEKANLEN
The experiment is described as follows: AuroraA-TPX2 Homogeneous Time Resolved Fluorescent (HTRF) kinase assay. It is filed as biochemical. To be noted: average; read-out: AurA_IC50_IP (uM Avg). In a few lines: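 HTRF read-out (Eu 615 nm to APC 655 nm) of phosphorylated biotin-PLK, detected with 0.02 nM europium anti-phosphoPLK antibody and 0.0005 mg/mL SA-APC after overnight equilibration.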
For orientation: Time-resolved FRET reads energy transfer from a long-lived donor to a nearby acceptor.

Experiment [2] deals with T2, AuroraB (Homo sapiens, UniProt Q96GD4).
T2 construct: 20 μL of AuroraB FL H is for a final volume of 41 μL; His
T2 sequence (Q96GD4 whole entry): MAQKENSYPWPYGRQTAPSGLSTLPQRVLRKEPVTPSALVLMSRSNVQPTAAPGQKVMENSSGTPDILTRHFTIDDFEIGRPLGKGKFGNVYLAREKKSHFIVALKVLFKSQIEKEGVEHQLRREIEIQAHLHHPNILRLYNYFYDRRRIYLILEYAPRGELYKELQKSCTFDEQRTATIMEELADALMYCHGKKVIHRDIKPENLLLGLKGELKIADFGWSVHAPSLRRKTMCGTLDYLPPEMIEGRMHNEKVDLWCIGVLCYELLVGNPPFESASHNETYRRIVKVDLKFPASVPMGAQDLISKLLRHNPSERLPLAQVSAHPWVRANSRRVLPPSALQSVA
The experiment is described as follows: AuroraB Homogeneous Time Resolved Fluorescent (HTRF) kinase assay. It is filed as biochemical. To be noted: average; read-out: AurB_IC50_IP (uM Avg). A digest of the protocol:
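Full-length His-tagged kinase phosphorylates biotinylated Histone H3 (0.1 μM final) with ATP in pH 7.5 HEPES containing MgCl, MnCl, DTT and BSA for about 90 min. EDTA-containing detection mix with SA-APC and Eu-anti-phosphoHistone H3 then equilibrated about 60 min; HTRF read with 320 nm excitation, emissions 615/655 nm.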

For `Oc1ccc2nccc(Sc3ccc(Nc4nnc(-c5ccc(Cl)cc5)c5ccccc45)cc3)c2c1` [Example 388, 4-(4-(4-(4-Chlorophenyl)phthalazin-1-ylamino)phenylthio)quinolin-6-ol], the IC50 in experiment [1] was 0.02 µM; in experiment [2], 0.003 µM.
As to `FC(F)(F)Oc1ccc2c(Oc3ccc(Nc4nnc(-c5ccccc5)c5ccccc45)cc3)ccnc2c1` [compound 496], the IC50 was 1.04 µM in experiment [1] and 0.374 µM in experiment [2].
For the compound `COc1cnc2c(Sc3ccc(Nc4nnc(N5CCN6CC(F)(F)C[C@H]6C5)c5ccccc45)cc3)ccnc2c1` [compound 601], the IC50 is 0.021 µM in experiment [1] and 0.012 µM in experiment [2].
Take `Cc1csc(-c2nnc(Nc3ccc(Sc4ccnc5cccnc45)cc3)c3ccccc23)c1` [compound 336, N-(4-(1,5-naphthyridin-4-ylthio)phenyl)-4-(4-methylthiophen-2-yl)phthalazin-1-amine]: the IC50 came to 0.019 µM in experiment [1] and 0.01 µM in experiment [2].
Taken in the same sequence, the figures for `COc1cnc2c(Oc3ccc(Nc4nnc(-c5ccc(C(N)=O)cc5)c5ccccc45)cc3)ccnc2c1` [compound 177, 4-(4-((4-((7-(methyloxy)-1,5-naphthyridin-4-yl)oxy)phenyl)amino)-1-phthalazinyl)benzamide] were 0.206 µM and 0.004 µM.
Taken in the same sequence, the figures for `COc1cc2nccc(Oc3ccc(Nc4nnc(N5CCCCC5)c5ccccc45)cc3)c2cc1OC` [compound 75, N-(4-((6,7-bis(methyloxy)-4-quinolinyl)oxy)phenyl)-4-(1-piperidinyl)-1-phthalazinamine] were 0.023 µM and 0.042 µM.
The matching figures for `COc1cnc2c(Oc3c(F)cc(Nc4nnc(-c5ccc(Cl)cc5)c5ccccc45)cc3F)ccnc2c1` [compound 454]: 0.05 µM and 0.01 µM.
For `Cc1cc2nccc(Sc3ccc(Nc4nnc(-c5ccc(Cl)cc5)c5ccccc45)cc3)c2s1` [compound 559], the figures for the IC50 in experiment [1] and in experiment [2] were 0.168 µM and 0.098 µM, respectively.
In the case of `COc1cccc(-c2nnc(Nc3ccc(Sc4ccnc5ccccc45)cc3)c3ccccc23)n1` [compound 327, 4-(6-(methyloxy)-2-pyridinyl)-N-(4-(4-quinolinylthio)phenyl)-1-phthalazinamine], the IC50 in experiment [1] came out at 0.118 µM; in experiment [2] it was 0.014 µM.
Taken in the same sequence, the figures for `Cc1noc(-c2cc3nccc(Oc4ccc(Nc5nnc(-c6ccccc6)c6ccccc56)cc4)c3s2)n1` [compound 288, N-(4-((2-(3-methyl-1,2,4-oxadiazol-5-yl)thieno[3,2-b]pyridin-7-yl)oxy)phenyl)-4-phenyl-1-phthalazinamine] were 0.302 µM and 0.039 µM.
Regarding `COc1cnc2c(Oc3ccc(Nc4nnc(-c5ccc(C)s5)c5ccccc45)cc3)ccnc2c1` [compound 138, N-(4-((7-(methyloxy)-1,5-naphthyridin-4-yl)oxy)phenyl)-4-(5-methyl-2-thienyl)-1-phthalazinamine], the values for the IC50 in experiment [1] and in experiment [2] were 0.018 µM and 0.013 µM, respectively.
Taken in the same sequence, the figures for `c1ccc2c(-c3ccc4c(c3)OCO4)nnc(Nc3ccc(Sc4ccnc5ccncc45)cc3)c2c1` [compound 427] were 0.055 µM and 0.007 µM.
Taken in the same sequence, the figures for `COc1ccc2nccc(Oc3ccc(Nc4nnc(-c5cc(C)cs5)c5ccccc45)cc3)c2n1` [compound 552] were 0.056 µM and 0.036 µM.
With `Fc1ccc2c(Oc3ccc(Nc4nnc(-c5ccc(Cl)cc5)c5ccccc45)cc3)ccnc2c1` [compound 455], the IC50 in experiment [1] is above 125 µM; in experiment [2], 0.013 µM.
As for `COc1cc2c(Oc3ccc(Nc4nnc(-c5ccccc5)c5ccccc45)cc3)ccnc2cc1O` [compound 422], the IC50 came to 0.029 µM in experiment [1] and 0.013 µM in experiment [2].
As to `COc1cnc2c(Oc3ccc(Nc4nncc5ccccc45)cc3)ccnc2c1` [compound 542, N-(4-((7-methoxy-1,5-naphthyridin-4-yl)oxy)phenyl)-1-phthalazinamine], the values for the IC50 in experiment [1] and in experiment [2] were 0.319 µM and 0.041 µM, respectively.
Regarding `COc1ccc2nccc(Sc3ccc(Nc4nnc(-c5cccc(C)n5)c5ccccc45)cc3)c2n1` [compound 419], the values for the IC50 in experiment [1] and in experiment [2] were 0.309 µM and 0.026 µM, respectively.
Take `COc1cc2c(Oc3ccc(Nc4nnc(-c5ccccc5)c5ccccc45)cc3)ccnc2cc1OCc1ccccc1` [compound 326, N-(4-((6-(methyloxy)-7-((phenylmethyl)oxy)-4-quinolinyl)oxy)phenyl)-4-phenyl-1-phthalazinamine]: the IC50 was found to be 0.026 µM in experiment [1] and 0.039 µM in experiment [2].
Taken in the same sequence, the figures for `O=C(c1cc2nccc(Sc3ccc(Nc4nnc(-c5ccccc5)c5ccccc45)cc3)c2s1)N1CCOCC1` [compound 313, morpholino(7-(4-(4-phenylphthalazin-1-ylamino)phenylthio)thieno[3,2-b]pyridin-2-yl)methanone] were 0.091 µM and 0.056 µM.
As for `COc1ccc2nccc(Sc3ccc(Nc4nnc(-c5ccc(Cl)cn5)c5ccccc45)cc3)c2n1` [compound 550], the IC50 in experiment [1] stood at 0.107 µM; in experiment [2] it was 0.022 µM.
The matching figures for `COc1cnc2c(Oc3ccc(Nc4nnc(-c5ccc6cc[nH]c6c5)c5ccccc45)cc3)ccnc2c1` [compound 206, 4-(1H-indol-6-yl)-N-(4-(7-methoxy-1,5-naphthyridin-4-yloxy)phenyl)phthalazin-1-amine]: 0.017 µM and 0.003 µM.
For the compound `COc1cnc2c(Oc3ccc(Nc4nnc(-c5ccc(C#N)cc5)c5ccccc45)cc3)ccnc2c1` [compound 181, 4-(4-((4-((7-(methyloxy)-1,5-naphthyridin-4-yl)oxy)phenyl)amino)-1-phthalazinyl)benzonitrile], the IC50 in experiment [1] came to 0.171 µM; in experiment [2], 0.007 µM.
`COc1cnc2c(Sc3ccc(Nc4nnc(C(C)C)c5ccccc45)cc3)ccnc2c1` [compound 558]: the IC50 in experiment [1] stood at 0.378 µM; in experiment [2] it was 0.041 µM.
Consider `COc1cnc2c(Oc3ccc(Nc4nnc(-c5ccc(C(F)(F)F)c(Cl)c5)c5ccccc45)cc3)ccnc2c1` [compound 172, 4-(3-chloro-4-(trifluoromethyl)phenyl)-N-(4-((7-(methyloxy)-1,5-naphthyridin-4-yl)oxy)phenyl)-1-phthalazinamine], for which the figures for the IC50 in experiment [1] and in experiment [2] were 0.039 µM and 0.017 µM, respectively.
Taken in the same sequence, the figures for `N#Cc1cc2nccc(Sc3ccc(Nc4nnc(-c5ccc(Cl)cc5)c5ccccc45)cc3)c2o1` [compound 489] were 0.09 µM and 0.019 µM.
Take `COc1ccc2c(Sc3ccc(Nc4nnc(-c5ccc(Cl)cn5)c5ccccc45)cc3)ccnc2c1` [compound 364, 4-(5-chloropyridin-2-yl)-N-(4-(7-methoxyquinolin-4-ylthio)phenyl)phthalazin-1-amine]: the IC50 in experiment [1] was found to be 0.036 µM; in experiment [2], 0.073 µM.
With `COc1cnc2c(Sc3ccc(Nc4nnc(C#N)c5ccccc45)cc3)ccnc2c1` [Example 404, 4-(4-(7-Methoxy-1,5-naphthyridin-4-ylthio)phenylamino)phthalazine-1-carbonitrile], the results for the IC50 in experiment [1] and in experiment [2] were 0.447 µM and 0.009 µM, respectively.
The matching figures for `COc1cnc2c(Sc3ccc(Nc4nnc(N5CCC(C(F)(F)F)CC5)c5ccccc45)cc3)ccnc2c1` [compound 523]: 0.036 µM and 0.144 µM.
